These results are taken from PubChem BioAssay (NCI).

One may read the GI50 as the concentration giving 50% growth inhibition. The TGI is the concentration giving total growth inhibition. Low values mean more potent growth arrest, high ones less potent growth arrest.

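Assay format: 96-well plates, 48-hour exposure. The concentration for 50% growth inhibition is given as GI50. TGI is the concentration that stops growth completely.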

Holding throughout (assay): DTP human tumour cell line panel, 48 h
For experiment [1], the system named is HCC-2998 colon.
Experiment [2] deals with HCT-15 colon.
Experiment [3] relates to HT29 colon.
In experiment [4] the test system is MALME-3M melanoma.
Experiment [5] concerns MCF7 breast.
In experiment [6] the test system is RPMI-8226 leukemia.
In experiment [7] the test system is SF-295 CNS.
Experiment [8] deals with SK-MEL-2 melanoma.
In experiment [9] the test system is SNB-75 CNS.
Experiment [10] relates to UACC-62 melanoma.

On to `COc1cc(C2CC(c3ccccc3)=NN2C(C)=O)cc(OC)c1OC` (stereo not given), for which the GI50 in [1] is 6.4 µM; in experiment [2] it was 2.48 µM; in experiment [3], 2.57 µM; in experiment [4], 13 µM; in [5] it was 2.26 µM; in experiment [6], 2.56 µM. Further, the GI50 in experiment [7] was 0.576 µM; in [8], 4.02 µM; in experiment [9], 1.74 µM; in [10] it was 4.2 µM. Also, the TGI in experiment [1] was more than 74 µM; in [2], more than 100 µM; in experiment [3], more than 100 µM; in [4], more than 100 µM; in experiment [5], more than 100 µM; in [6] it was more than 27.7 µM. Besides, the TGI was 4.15 µM in [7], more than 100 µM in experiment [8], 13.3 µM in experiment [9] and more than 100 µM in experiment [10].

With `Cc1[nH]nc2ccc3nc(-c4ccc5[nH]ncc5c4)c4c(c3c12)CCCC4`, the GI50 in experiment [1] was 2.19 µM; in experiment [2] it was 0.638 µM; in [3], 1.51 µM; in experiment [4], 1.33 µM; in [5] it was 3.54 µM; in experiment [6], 1.51 µM. For the same compound, the GI50 in experiment [7] is 2.74 µM; in [8] it was 0.476 µM; in experiment [9], 1.52 µM; in experiment [10], 0.717 µM. In addition, the TGI in experiment [1] came to 15.1 µM; in experiment [2], 12.6 µM; in [3], 12.5 µM; in experiment [4], 6.32 µM; in [5], 17.1 µM; in experiment [6], 6.65 µM. The concentration for total growth inhibition (TGI) in experiment [7] amounted to 10.5 µM; in experiment [8], 2.48 µM; in experiment [9], 7.28 µM; in experiment [10] it was 6.13 µM.

For `O=C(Cc1ccccc1)NC(c1ccc(Cl)cc1)c1c(O)ccc2ccccc12` (stereo not given), the GI50 in experiment [1] is 3.2 µM; in experiment [2], 2.83 µM; in experiment [3], 3.74 µM; in experiment [4] it was 2.69 µM; in [5], 2.66 µM; in experiment [6], 2.84 µM. Also, the GI50 is 2.35 µM in experiment [7], 2.9 µM in experiment [8], 2.22 µM in experiment [9] and 2.25 µM in [10]. Besides, the TGI amounted to 12.2 µM in experiment [1]; 10.5 µM in [2]; 11.3 µM in experiment [3]; 8.22 µM in experiment [4]; 9.37 µM in experiment [5]; 8.36 µM in [6]. In addition, the TGI in experiment [7] came to 7.5 µM; in [8], 6.83 µM; in experiment [9] it was 12.4 µM; in experiment [10] it was 6.07 µM.

In the case of `COc1nc(N)nc2c1ncn2[C@@H]1O[C@H](CO)[C@@H](O)[C@@H]1O`, the GI50 in experiment [1], in [2], in [3], in experiment [4], in experiment [5] and in experiment [6] was more than 100 µM in each case. Besides, the GI50 in experiment [7], in experiment [8], in [9] and in experiment [10] was more than 100 µM throughout. Further, the TGI in experiment [1], in experiment [2], in experiment [3], in experiment [4], in experiment [5] and in experiment [6] was more than 100 µM throughout. Moreover, the TGI in experiment [7], in experiment [8], in experiment [9] and in experiment [10] was more than 100 µM throughout.

Regarding `CCCC(=O)Nc1ccc2c(c1)CN1C(=O)c3ccccc3C1=N2`, the TGI in [1], in experiment [2], in [3], in experiment [4], in experiment [5] and in experiment [6] was more than 100 µM in each case. Also, the total growth inhibition concentration (TGI) in experiment [7], in experiment [8], in experiment [9] and in [10] was more than 100 µM in each case.

For the compound `COc1ccc2c(c1)/C(=C\c1c(Cl)n(C)c3ccccc13)C(=O)N2`, the GI50 in experiment [1] was 0.306 µM; in [2], 0.456 µM; in [3], 0.574 µM; in experiment [4], 4.59 µM; in [5] it was 0.682 µM; in experiment [6], 1.76 µM. For the same compound, the GI50 is 0.981 µM in experiment [7], 0.668 µM in [8], 1.67 µM in experiment [9] and 0.255 µM in experiment [10]. The TGI was 1.08 µM in [1]; 8.17 µM in experiment [2]; more than 100 µM in experiment [3]; 16.7 µM in [4]; more than 38.7 µM in experiment [5]; more than 34.3 µM in [6]. In addition, the TGI is 6.66 µM in [7], 31.4 µM in experiment [8], 23.6 µM in experiment [9] and 5.34 µM in [10].

For the compound `Brc1ccccc1C=NC12CC3CC(CC(C3)C1)C2`, the TGI in experiment [1], in experiment [2], in [3], in experiment [4], in [5] and in experiment [6] was more than 100 µM throughout. Besides, the TGI in experiment [7], in experiment [8], in experiment [9] and in experiment [10] was more than 100 µM each time.

For `CC(=O)OC1Oc2cc(C)c(C)cc2-c2oc(=O)c(-c3ccc(F)cc3)cc21` (stereo not given), the GI50 in [1] is 3.97 µM; in experiment [2] it was 2.68 µM; in [3] it was 2.7 µM; in experiment [4], 5.04 µM; in experiment [5], 3.08 µM; in [6] it was 2.52 µM. Moreover, the GI50 in experiment [7] is 3.92 µM; in experiment [8], 6.05 µM; in experiment [9], 4.34 µM; in experiment [10], 3.92 µM. In addition, the TGI in experiment [1] turned out to be 28.2 µM; in experiment [2] it was 19.1 µM; in [3] it was 12.1 µM; in experiment [4], 31.7 µM; in experiment [5], 20.1 µM; in experiment [6], 9.04 µM. Besides, the TGI in [7] was more than 100 µM; in [8], 41.3 µM; in experiment [9] it was 80.8 µM; in [10], 76.3 µM.
